The results in this text go back to ChEMBL document CHEMBL1201862, “PubChem BioAssay data set” (2004).

Experiment in all cases: inhibition of tumour cell growth, NCI panel, 48 h
For test [1], the system named is A498.
In test [2] the test system is DMS-273.
Test [3] deals with DU-145.
For test [4], the system named is HL-60.
Test [5] relates to HOP-62.
Test [6] relates to HT-29.
Test [7] deals with Hs-578T.
The subject of test [8] is NCI-H460.
Test [9] relates to NCI/ADR-RES.
The subject of test [10] is OVCAR-4.
The test system of test [11] is OVCAR-5.
In test [12] the test system is OVCAR-8.
The test system of test [13] is SF-539.
The subject of test [14] is SN12C.
Test [15] relates to SNB-19.
Test [16] concerns TK-10.
Test [17] relates to U-251.
The subject of test [18] is UACC-257.
For test [19], the system named is UACC-62.
The test system of test [20] is UO-31.

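Following 48 hours of exposure in 96-well plates, responses at five concentrations were used to interpolate endpoints linearly. Here, GI50 denotes the concentration required for 50% inhibition of growth.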 Active and inactive are the calls of the source. Cut-off read from the data, not from the text of the source: active = GI50 up to about 1.1 µM and inactive = higher. A value given as a limit tells only on which side of the number the result lay.

For the compound `O=C1C=CC(=O)c2c1c1c(c3c2C2c4ccccc4C3c3ccccc32)C2c3ccccc3C1c1ccccc12`, the GI50 was 2.9 µM (inactive) in [1]; 2.11 µM (inactive) in [2]; 15.1 µM (inactive) in test [3]; 1.54 µM (inactive) in test [4]; 19.5 µM (inactive) in test [5]; 2.11 µM (inactive) in test [6]. Moreover, the GI50 in [7] was 4.29 µM (inactive); in [8] it was 13.2 µM (inactive); in [9], 5.04 µM (inactive); in [10], 2.04 µM (inactive); in test [11] it was 6.55 µM (inactive); in [12], 1.53 µM (inactive). Besides, the GI50 in [13] is 5.15 µM (inactive); in [14], 3.67 µM (inactive); in [15], 16.2 µM (inactive); in test [16] it was 1.87 µM (inactive); in [17], 8.71 µM (inactive); in test [18], 1.85 µM (inactive). Moreover, the values for the GI50 in test [19] and in test [20] were 2.07 µM (inactive) and 2.04 µM (inactive), respectively.

Consider `COC(=O)c1ccc(NCc2cc(O)ccc2O)cc1`, for which the GI50 in test [1] is 16.8 µM (inactive); in test [2] it was 24.7 µM (inactive); in test [3], 12.4 µM (inactive); in test [4], 1.69 µM (inactive); in [5] it was 15.9 µM (inactive); in test [6], 23.1 µM (inactive). In addition, the GI50 was 3.93 µM (inactive) in test [7]; 23.6 µM (inactive) in test [8]; 3.08 µM (inactive) in test [9]; 11.5 µM (inactive) in [10]; 15 µM (inactive) in test [11]; 11.6 µM (inactive) in test [12]. Moreover, the GI50 in test [13] is 5.46 µM (inactive); in test [14], 16.5 µM (inactive); in [15] it was 22.7 µM (inactive); in test [16] it was 17.5 µM (inactive); in test [17], 9.79 µM (inactive); in [18], 14.4 µM (inactive). Besides, the GI50 was 10.4 µM (inactive) in test [19] and 8 µM (inactive) in test [20].

As for `O=C(O)COc1ccc2c3c1C(=O)CCC3CO2` (configuration not stated), the GI50 in test [1], in [2], in test [4], in test [5], in test [6] and in test [8] was > 100 µM (inactive) each time. The GI50 in test [10], in [11], in test [12], in [13], in test [14] and in [15] was > 100 µM (inactive) throughout. In addition, the GI50 in test [16], in test [17], in [18], in [19] and in test [20] was > 100 µM (inactive) in each case.

`CCOC(=O)C1S/C(=N\c2ccc(OC)c(OC)c2)N=C1C` (configuration not stated): the GI50 in test [1] is 52.7 µM (inactive); in test [2] it was 38.4 µM (inactive); in test [4] it was 19.2 µM (inactive); in test [5], 92 µM (inactive); in [6], 18.8 µM (inactive); in test [8], 43.5 µM (inactive). Moreover, the GI50 in [10] was 40.2 µM (inactive); in test [11], 40.2 µM (inactive); in [12], 36.6 µM (inactive); in test [13], 53.2 µM (inactive); in test [14] it was 44.1 µM (inactive); in test [15], 53.5 µM (inactive). For the same compound, the GI50 was 75.9 µM (inactive) in test [16]; 36.2 µM (inactive) in test [17]; 41.7 µM (inactive) in test [18]; 26.3 µM (inactive) in test [19]; 34.6 µM (inactive) in [20].

As to `CC12CC(Sc3ccccc3N1)c1ccccc1O2` (configuration not stated), the GI50 in test [1] is 18.5 µM (inactive); in test [2] it was 16.3 µM (inactive); in [4], 11 µM (inactive); in [5], 19.6 µM (inactive); in [6] it was 19.7 µM (inactive); in [8] it was 16.6 µM (inactive). The GI50 in test [10] was 17 µM (inactive); in [11], 19 µM (inactive); in test [12], 17.9 µM (inactive); in [13], 17.5 µM (inactive); in test [14], 18.8 µM (inactive); in [15], 15.2 µM (inactive). Further, the GI50 is 28.9 µM (inactive) in test [16]; 13.2 µM (inactive) in test [17]; 14.5 µM (inactive) in test [18]; 17 µM (inactive) in test [19]; 14.1 µM (inactive) in [20].

With `Cn1c2c(c3ccccc31)CCN(CCCCN1CCc3c(n(C)c4ccccc34)C1=O)C2`, the GI50 in [1], in [2], in [4], in test [5], in test [6] and in test [8] was > 100 µM (inactive) each time. Further, the GI50 in test [10] is 36.7 µM (inactive); in [11], > 100 µM (inactive); in test [12] it was > 100 µM (inactive); in [13], 47.5 µM (inactive); in test [14] it was > 100 µM (inactive); in [15], > 100 µM (inactive). In addition, the GI50 in [16], in test [17], in test [18], in test [19] and in test [20] was > 100 µM (inactive) in each case.

On to `C=C1CC2OC2(C(=O)O[C@H]2CCC3[C@@H]4CCC5=CC(=O)CC[C@]5(C)C4CC[C@@]32C)C1=O` (some centres not stated), for which the GI50 in [1] was 13.6 µM (inactive); in [2], 4.45 µM (inactive); in test [3], 17.8 µM (inactive); in test [4], 0.83 µM (active); in test [5], 21.4 µM (inactive); in test [6], 8.34 µM (inactive). Besides, the GI50 in test [7] was 16.8 µM (inactive); in [8], 11 µM (inactive); in test [10], 6.34 µM (inactive); in test [11] it was 19.6 µM (inactive); in test [12], 7.59 µM (inactive); in [13], 9.33 µM (inactive). Moreover, the GI50 was 6.52 µM (inactive) in [14]; 18.7 µM (inactive) in test [15]; 6.49 µM (inactive) in [16]; 8.97 µM (inactive) in test [17]; 8.05 µM (inactive) in test [18]; 14.6 µM (inactive) in [19]. The GI50 in test [20] is 8.38 µM (inactive).
